Experimental data: the NIST ThermoML archive (doi:10.1021/je5004466)
± gives the expanded uncertainty stated by the source.

Settings: Crystal; visual observation

- Normal melting temperature: 91 ± 2 °C
Compound: C[n+]1ccn(CCOCCOCCn2cc[n+](C)c2)c1.F[P-](F)(F)(F)(F)F.F[P-](F)(F)(F)(F)F
